{
  "source": "patent EP0808626A1",
  "about": "“Use of acetyl-L-carnitine for the treatment of presenile Alzheimer's disease” (Sigma-Tau Industrie Farmaceutiche Riunite S.p.A., priority 1996, dated 1997)",
  "key": {"early-onset AD patients": {"test_system": "early-onset AD patients", "assay": "Double-blind, randomized, placebo-controlled trials with cognitive and functional clinical rating scales", "assay_type": "in vivo", "details": "\"efficacy\" population", "protocol": "For the purposes of assessing the clinical efficacy of acetyl L-carnitine in early-onset AD patients. 8 different parallel-group, double-blind, randomized, placebo-controlled trials in which acetyl L-carnitine was administered chronically by mouth to subjects suffering from early-onset (before age 65) or late-onset (after age 65) Alzheimer's disease were pooled and assessed as a whole.\nAcetyl L-carnitine or placebo were administered at doses ranging from 2 to 3 g/day in the different studies. All patients recruited into these trials had diagnoses of probable Alzheimer's disease according to the criteria laid down by the DSM-III-R and the NINCDS-ADRDA; for recruitment patients had to have a Hachinski Ischemic Score of 4 points or less and no CT or NMR findings indicative of cerebral lesions other than those typical of Alzheimer's disease.\nA total of 834 patients were recruited into the 8 trials considered. Of these, 140 (16.8%) were suffering from early-onset AD (before 65 years of age according to the DSM-IV definition). The criterion adopted to identity these patients as early-onset was their actual age at the time of recruitment into the study.\nIn the 8 trials considered, the progression of Alzheimer's disease was assessed on the basis of cognitive clinical rating scales (cognitive section of the Alzheimer's Disease Assessment Scale [ADAS-Cog]; MMSE - Mini Mental State Examination; BIMC - Blessed Information Memory Concentration) and functional or global clinical scales (CDR - Clinical Dementia Rating Scale; BDS - Blessed Dementia Scale; CGI-S and -C - Clinical Global Impression of Severity and Change) according to the scientific criteria indicated and approved by the various international regulatory authorities."}, "[1]": {"details": "stated to justify doses larger than 1 to 4 g/day; cited from earlier work"}, "[2]": {"details": "study ST-901, Functional, oral 3 g/day, 12 months"}, "[3]": {"details": "study ST-88102, Cognitive, oral 2-3 g/day, 44 weeks"}, "[4]": {"details": "study ST-88102, Functional, oral 2-3 g/day, 44 weeks"}, "[5]": {"details": "the 5 studies of 6 months, Functional, oral"}},
  "data": [
    {"smiles": "CC(=O)O[C@H](CC(=O)[O-])C[N+](C)(C)C", "note": "[Acetyl L-carnitine, acetyl L-carnitine]", "values": [
      {"measurement": "BIMC, mean change in final value at 6-12 months compared to baseline", "setting": "early-onset AD patients; study DRN2-006, Cognitive, oral 2 g/day, 12 months", "value": -3.5},
      {"measurement": "BDS, mean change in final value at 6-12 months compared to baseline", "setting": "early-onset AD patients; study DRN2-006, Functional, oral 2 g/day, 12 months", "value": 0.4},
      {"measurement": "CDR, mean change in final value at 6-12 months compared to baseline", "setting": "early-onset AD patients; [2]", "value": 1.9},
      {"measurement": "CGI-C, mean change in final value at 6-12 months compared to baseline", "setting": "early-onset AD patients; [2]", "value": 4.5},
      {"measurement": "CGI-S, mean change in final value at 6-12 months compared to baseline", "setting": "early-onset AD patients; [2]", "value": 0.3},
      {"measurement": "ADAS-Cog, mean change in final value at 6-12 months compared to baseline", "setting": "early-onset AD patients; [3]", "value": 4.7},
      {"measurement": "MMSE, mean change in final value at 6-12 months compared to baseline", "setting": "early-onset AD patients; [3]", "value": -2.1},
      {"measurement": "BDS, mean change in final value at 6-12 months compared to baseline", "setting": "early-onset AD patients; [4]", "value": 1.2},
      {"measurement": "CGI-C, mean change in final value at 6-12 months compared to baseline", "setting": "early-onset AD patients; [4]", "value": 4.4},
      {"measurement": "CGI-S, mean change in final value at 6-12 months compared to baseline", "setting": "early-onset AD patients; [4]", "value": 0.0},
      {"measurement": "MMSE, mean change in final value at 6-12 months compared to baseline", "setting": "early-onset AD patients; the 5 studies of 6 months, Cognitive, oral", "value": -0.7},
      {"measurement": "CGI-C, mean change in final value at 6-12 months compared to baseline", "setting": "early-onset AD patients; [5]", "value": 4.3},
      {"measurement": "CGI-S, mean change in final value at 6-12 months compared to baseline", "setting": "early-onset AD patients; [5]", "value": 0.2},
      {"measurement": "toxicity", "setting": "[1]", "value": "substantial non-toxicity"}
    ]}
  ]
}
